Data published in PubChem BioAssay (NCI).
Several values for one entry are separate records, joined by “and”; a condition that tells them apart may be missing. Equal entries are not always repeated.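 Compound exposure: 48 hours, 5 concentrations, 96-well plates. GI50 = concentration required for 50% inhibition of growth. At the TGI there is no net growth.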

Columns and labels:
Assay in all cases: NCI anticancer screen, dose series, 48 h
[1] = system: A498 renal
[2] = system: CCRF-CEM leukemia
[3] = system: EKVX NSCLC
[4] = system: HCT-116 colon
[5] = system: HL-60(TB) leukemia
[6] = system: HOP-92 NSCLC
[7] = system: NCI-H226 lung
[8] = system: NCI/ADR-RES ovarian
[9] = system: SF-268 CNS
[10] = system: U251 CNS

Row | SMILES | GI50 [1] [µM] | TGI [1] | GI50 [2] [µM] | TGI [2] | GI50 [3] [µM] | TGI [3] | GI50 [4] [µM] | TGI [4] [µM] | GI50 [5] [µM] | TGI [5] [µM] | GI50 [6] [µM] | TGI [6] | GI50 [7] [µM] | TGI [7] [µM] | GI50 [8] [µM] | TGI [8] | GI50 [9] [µM] | TGI [9] | GI50 [10] [µM] | TGI [10] [µM]
1 | O=C(Nc1cccc(-n2ccc3c(NC(=O)c4ccccc4)ncnc32)c1)Nc1ccc(Cl)c(C(F)(F)F)c1 | 2.65 | 9.51 µM | 0.655 | 9.04 µM | 2.71 | 9.84 µM | 1.85 | 6.66 | 1.87 | 5.28 | 0.556 | 4.31 µM | 5.27 | 11.5 | 3.73 | 32 µM | 3.69 | 10.5 µM | 2.09 | 8.39
2 | Nc1nc(Cl)c(CO)c(NCC2(CO)CCC2)n1 |  | > 100 µM |  | > 100 µM |  | > 100 µM |  | > 100 |  | > 100 |  | > 100 µM |  | > 100 |  | > 100 µM |  | > 100 µM |  | > 100
3 | NC(CCC(=O)c1ccccn1)C(=O)O (configuration not stated) |  | > 100 µM |  | > 100 µM |  | > 100 µM |  | > 100 |  | > 100 |  | > 100 µM |  | > 100 |  | > 100 µM |  | > 100 µM |  | > 100
4 | CC(=O)c1csc2c1C(=O)c1ccccc1C2=O |  | > 100 µM |  | 4.01 µM |  | 18.6 µM |  | 7.85 |  | 19.5 |  | 89.1 µM |  | 3.42 |  | 16.6 µM |  | 12.9 µM |  | 13.9
5 | CCN(CC)c1c(C(C)(C)C)c(=O)n2ccsc2c1OC(C)=O |  | 33.6 µM |  | > 100 µM |  | 29.3 µM |  | 26.5 |  | > 100 |  | 31.2 µM |  | 29.2 |  | 28.4 µM |  | 30.1 µM |  | 30.8
6 | OCCc1ccsc1-c1sc(-c2cc(CCO)c(-c3sc(-c4cc(CCO)c(-c5sccc5CCO)s4)cc3CCO)s2)cc1CCO |  | 3.65 µM |  | > 25.4 µM |  | 2.91 µM |  | 2.33 |  | 3.61 |  | 2.89 µM |  | 3.86 |  | 4.14 µM |  | 2.14 µM |  | 2.6
7 | COc1cc(/C=C(\C)[N+](=O)[O-])cc(OC)c1 |  | 25 µM |  | 5.77 µM |  | 33.9 µM |  | 31.2 |  | 4.33 |  | 28.2 µM |  | > 94.7 |  | 39.8 µM |  | 35.6 µM |  | 32.1
8 | Cc1ccc(C2=CC(=O)/C(=C\C(=O)c3ccc(Br)cc3)O2)c(C)c1 |  | 39.4 µM |  | > 100 µM |  | > 67.7 µM |  | 19.8 |  | > 100 |  | 19.4 µM |  | 30.8 |  | 29.4 µM |  | 31.5 µM |  | 43.9
9 | Cc1c2cc[n+](Cc3ccc(I)cc3)cc2c(C)c2c1[nH]c1ccccc12 |  | > 25 µM |  | 9.51 µM |  | 7.85 µM |  | > 16.8 |  | 1.11 |  | 3.3 µM |  | 5.27 |  | > 25 µM |  | 7.18 µM |  | 8.59
10 | Cc1nc2ccc(NCCN(C)C)c3c(=O)c4ccccc4n1c23 |  | 12.1 µM |  | 47.5 µM |  | 14.2 µM |  | 13.8 |  | > 47.5 |  | 14.2 µM |  | 8.69 |  | 6.83 µM |  | 20.2 µM |  | 16.2
11 | Cc1cccc2c(=O)c3c(O)cc(O)cc3n(C)c12 |  | 98.7 µM |  | > 100 µM |  | > 100 µM |  | > 100 |  | > 100 |  | > 100 µM |  | > 100 |  | > 100 µM |  | > 100 µM |  | > 100
12 | CNC(=O)OCc1cnc([N+](=O)[O-])n1C |  | > 100 µM |  | > 100 µM |  | > 100 µM |  | > 100 |  | > 100 |  | > 100 µM |  | > 100 |  | > 100 µM |  | > 100 µM |  | > 100
13 | O=c1cc(NNc2cccc3ccccc23)[nH]c(=O)[nH]1 |  | 35.7 µM |  | 81.9 µM |  | 27.7 µM |  | 31.2 |  | 7.99 |  | 31.7 µM |  | 27.9 |  | 40.9 µM |  | 31 µM |  | 28.3
14 | CC(=O)OCC1OC(OCCCOP(=O)(OCCC#N)OCC2OC(n3cnc4c(N)ncnc43)C(OC(=O)c3ccccc3)C2OC(=O)c2ccccc2)C(OC(C)=O)C(OC(C)=O)C1OC(C)=O (configuration not stated) |  | > 100 µM |  | > 100 µM |  | > 100 µM |  | > 100 |  | > 100 |  | > 100 µM |  | > 100 |  | > 100 µM |  | > 100 µM |  | > 100
15 | CCCC(=O)Nc1cc(C(=O)N2C[C@H]3C[C@@]34C2=CC(=O)c2[nH]cc(C)c24)n(COC)c1 | 0.22 | 1.7 µM and 0.758 µM |  | 0.105 µM and 0.245 µM | 0.421 | 3.37 µM and 2.29 µM |  | 7.27 |  | 0.23 | 0.291 | 2.64 µM and 0.728 µM |  | 5.18 | 1.17 | 2.73 µM and 4.64 µM | 0.0847 | 1.5 µM and 11.1 µM |  | 
16 | Cc1c(C#N)c2nnn(-c3cccc(Cl)c3)c(=O)n2c1-c1ccccc1 |  | 13 µM |  | > 100 µM |  | > 100 µM |  | 38.2 |  | > 100 |  | > 100 µM |  | 12.6 |  | > 100 µM |  | > 100 µM |  | 11.1
17 | Nc1nc(Sc2ccc([N+](=O)[O-])c3nonc23)c2[nH]cnc2n1 |  | 13.8 µM |  | 2.13 µM |  | 19 µM |  | 3.89 |  | 4.86 |  | 10.5 µM |  | 11.3 |  | 25.4 µM |  | 18 µM |  | 21.7

Row | SMILES | GI50 [1] [µM] | TGI [1] | GI50 [2] [µM] | TGI [2] | GI50 [3] [µM] | TGI [3] | GI50 [4] [µM] | TGI [4] [µM] | GI50 [5] [µM] | TGI [5] [µM] | GI50 [6] [µM] | TGI [6] | GI50 [7] [µM] | TGI [7] [µM] | GI50 [8] [µM] | TGI [8] | GI50 [9] [µM] | TGI [9] | GI50 [10] [µM] | TGI [10] [µM]
18 | CC1OC(OC2C(O)CC(OC3C(O)CC(OC4CCC5(C)C(CCC6C5CCC5(C)C(C7=CC(=O)OC7)C(O)CC65O)C4)OC3C)OC2C)CC(O)C1O (configuration not stated) |  | 0.908 µM |  | > 100 µM |  | 0.63 µM |  | 0.576 |  | 1.23 |  | 1.85 µM |  | 2.14 |  | 0.968 µM |  | 0.607 µM |  | 1.31
19 | CNC(=O)[C@H](Cc1ccccc1)NC(=O)N(CCC#N)CCN(C(=O)N[C@@H](Cc1ccccc1)C(=O)OC)c1ccccc1 |  | > 100 µM |  | > 100 µM |  | > 100 µM |  | > 100 |  | > 100 |  | > 100 µM |  | > 100 |  | > 100 µM |  | > 100 µM |  | > 100
20 | COC(=O)c1ccccc1C1CN=NC12Cc1ccc(C)cc1C2=O (configuration not stated) |  | > 100 µM |  | > 100 µM |  | > 100 µM |  | > 100 |  | > 100 |  | > 100 µM |  | > 100 |  | > 100 µM |  | > 100 µM |  | > 100
21 | COc1cccc(NC(=O)CC(=O)NN)c1 |  | > 100 µM |  | > 100 µM |  | > 100 µM |  | > 100 |  | > 100 |  | > 100 µM |  | > 100 |  | > 100 µM |  | > 100 µM |  | > 100
22 | Nc1cccc(-c2cc(=O)c3cc4c(cc3[nH]2)OCO4)c1 |  | > 100 µM |  | > 100 µM |  | > 100 µM |  | 3.62 |  | > 100 |  | > 100 µM |  | > 30.4 |  | 2.95 µM |  | > 100 µM |  | 24.9
23 | CCOC(=O)C1=C(O)CC(=O)N=C1N1CCCC1 |  | > 100 µM |  | > 100 µM |  | > 100 µM |  | > 100 |  | > 100 |  | > 100 µM |  | > 100 |  | > 100 µM |  | > 100 µM |  | > 100
24 | CC1(C)N=C(C(N)=O)c2[nH]cnc2N1 |  | > 100 µM |  | > 100 µM |  | > 100 µM |  | > 100 |  | > 100 |  | > 100 µM |  | > 100 |  | > 100 µM |  | > 100 µM |  | > 100
25 | COC(=O)CN1CCN(c2cccc3c2CCCC3)CC1 |  | > 100 µM |  | > 100 µM |  | > 100 µM |  | > 100 |  | > 100 |  | 15.4 µM |  | 94.6 |  | > 100 µM |  |  |  | > 100
26 | Clc1ccc(-c2cn3c(nc4ccccc43)c(-c3ccccc3)n2)cc1 |  | 54 µM |  | > 100 µM |  | > 100 µM |  | > 100 |  | > 100 |  | 40.9 µM |  | > 100 |  | > 100 µM |  | > 100 µM |  | 25.3
27 | [CH3][Sn]([CH3])([CH3])[S]C(=S)N1CCOCC1 | 15.3 | 73.8 µM | 0.0701 | 1.67 µM | 4.96 | > 100 µM | 0.146 | 2.03 | 0.217 | 1.3 | 1.84 | 6.48 µM | 2.72 | 17 | 1.82 | 11.2 µM | 3.65 | > 100 µM | 2.82 | 11.4
28 | Nc1nc(N)c2nc(CN(C=O)c3ccc(C(=O)O)cc3)cnc2n1 |  | > 79.9 µM |  | > 100 µM |  | > 100 µM |  | > 100 |  | > 100 |  | > 100 µM |  | > 100 |  | > 45.2 µM |  | > 100 µM |  | > 100
29 | COC(=O)c1ccccc1CC1Cc2c(C)ccc(C)c2C1=O (configuration not stated) |  | 71 µM |  | 52.8 µM |  | > 100 µM |  | 56 |  | 55.6 |  | 54.4 µM |  | > 100 |  | 70.9 µM |  | > 100 µM |  | > 100
30 | CC(=O)OC1CCn2c1nc1cc([N+](=O)[O-])c(C)cc12 (configuration not stated) |  | > 100 µM |  | > 100 µM |  | > 100 µM |  | > 100 |  | > 100 |  | > 100 µM |  | > 100 |  | > 100 µM |  | > 100 µM |  | > 100
31 | Brc1ccc2[nH]c3c(C4=NCCC4)nccc3c2c1 |  | > 49.2 µM |  | > 30.1 µM |  | 57.3 µM |  | > 23.2 |  | 18.6 |  | > 74.2 µM |  | 26.4 |  | > 100 µM |  | > 70.4 µM |  | > 38.8
32 | NC(=S)NNCC(=O)CC(O)(C(F)(F)F)C(F)(F)Cl (configuration not stated) |  | > 100 µM |  | > 100 µM |  | > 100 µM |  | > 100 |  | > 100 |  | > 100 µM |  | > 100 |  | > 100 µM |  |  |  | > 100
33 | CC(=O)O[C@H]1[C@@H](N2CCOCC2)C[C@H]2[C@@H]3CC=C4C[C@@H](N5CCCC5)CC[C@]4(C)[C@H]3CC[C@@]21C |  | > 100 µM |  | > 100 µM |  | > 100 µM |  | > 100 |  | > 100 |  | > 100 µM |  | > 100 |  | > 100 µM |  | > 100 µM |  | > 100
